In patent publication US20260317272A1, “USE OF STROBILURIN TYPE COMPOUNDS FOR COMBATING PHYTOPATHOGENIC FUNGI CONTAINING AN AMINO ACID SUBSTITION F129L IN THE MITOCHONDRIAL CYTOCHROME B PROTEIN CONFERRING RESISTANCE TO QO INHIBITORS XVI” (priority 2023, published 2026):

How the values were obtained:
[1] = system: Puccinia striiformis; experiment: Use Example 10: preventative control of wheat stripe rust on wheat (PUCCST P7); assay type: in vivo; settings: 16 ppm, untreated 90%
Description: (§1) The compound was dissolved in a mixture of acetone and/or dimethylsulfoxide and the wetting agent/emulsifier Wettol, which is based on ethoxylated alkylphenoles, in a ratio (volume) solvent-emulsifier of 99 to 1 to give a total volume of 5 ml. Subsequently, water was added to total volume of 100 ml. This stock solution was then diluted with the described solvent-emulsifier-water mixture to the final concentration given in the tables below.
Use Example 10. Preventative Control of Wheat Stripe Rust on Wheat Caused by Puccinia striiformis (PUCCST P7)
The first two developed leaves of potted wheat seedling were sprayed to run-off with previously described spray solution, containing the concentration of active ingredient or their mixture as described below. Seven days later the plants were inoculated with spores of Puccinia striiformis. To ensure the success of the artificial inoculation, the plants were transferred to a chamber without light and a temperature of 5° C. for 24 h. Then the trial plants were cultivated for up to 14 days in a greenhouse chamber at 16° C. and a relative humidity of minimum 75%. The extent of fungal attack on the leaves was visually assessed as % diseased leaf area.

[2] = system: Phakopsora pachyrhizi; experiment: Use Example 2: curative control of soybean rust on soybeans (PHAKPA K2); assay type: in vivo; settings: 16 ppm, F129L strain, up to 14 days, untreated 90
Description: as §1
Use Example 2. Curative Control of Soybean Rust on Soybeans Caused by Phakopsora pachyrhizi (PHAKPA K2)
Leaves of potted soybean seedlings were inoculated with spores of Phakopsora pachyrhizi. The strain used contains the amino acid substitution F129L in the mitochondrial cytochrome b protein conferring resistance to Qo inhibitors. To ensure the success of the artificial inoculation, the plants were transferred to a humid chamber with a relative humidity of about 95% and 20 to 24° C. for 24 h. The next day the plants were cultivated for 1 day in a greenhouse chamber at 23-27° C. and a relative humidity between 60 and 80%. Then the plants were sprayed to run-off with the previously described spray solution, containing the concentration of active ingredient or their mixture as described below. The plants were allowed to air-dry. Then the trial plants were cultivated up to 14 days in a greenhouse chamber at 23-27° C. and a relative humidity between 60 and 80%. The extent of fungal attack on the leaves was visually assessed as % diseased leaf area.

[3] = system: Alternaria solani; experiment: Use Example 1: preventative fungicidal control of early blight on tomatoes (ALTESO P1); assay type: in vivo; settings: 63 ppm, tomato, treated 1 day before inoculation, F129L strain, assessed after 5 days, untreated 85
Description: as §1
Use Example 1. Preventative Fungicidal Control of Early Blight on Tomatoes (Alternaria solani) (ALTESO P1)
Young seedlings of tomato plants were grown in pots. These plants were sprayed to run-off with previously described spray solution, containing the concentration of active ingredient or mixture mentioned in the table below. The next day the treated plants were inoculated with an aqueous suspension of Alternaria solani. The strain used contains the amino acid substitution F129L in the mitochondrial cytochrome b protein conferring resistance to Qo inhibitors. Then the trial plants were immediately transferred to a humid chamber. After 5 days at 18 to 20° C. and a saturated relative humidity, the extent of fungal attack on the leaves was visually assessed as % diseased leaf area.

[4] = system: Pyrenophora teres; experiment: Use Example 12: control of net blotch on barley (PYRNTE P4); assay type: in vivo, Pyrenophora (syn. Drechslera) teres; settings: F129L strain, inoculated seven days later, 16 ppm, untreated 80%
Description: as §1
Use Example 12. Control of Net Blotch on Barley Caused by Pyrenophora teres (PYRNTE P4)
The first fully developed leaves of potted barley plants were sprayed to run-off previously described spray solution, containing the concentration of active ingredient or their mixture mentioned in the table below. Seven days later the treated plants were inoculated with an aqueous spore suspension of Pyrenophora (syn. Drechslera) teres. The strain used contains the amino acid substitution F129L in the mitochondrial cytochrome b protein conferring resistance to Qo inhibitors. After up to 19 days of cultivation at 20-24° C. and a relative humidity close to 70%, the extent of fungal attack on the leaves was visually assessed as % diseased leaf area.

[5] = system: Phakopsora pachyrhizi; experiment: Use Example 14: activity against Asian soybean rust under semi field conditions; assay type: in vivo; settings: 100 g a.i./ha; for B14 Efficacy, % / Efficacy, %: Abbot's formula; for B14 Efficacy, % / B14 infection rate, %: 14 days after second application, semi field, Brazil; for B14 infection rate, %: sprayed twice, 14 day interval; for Efficacy, %: B14; for infection rate, %: B14 (14 days after second application)
Description: Use Example 14. Activity Against Asian Soybean Rust (Phakopsora pachyrhizi) Under Semi Field Conditions
Soybeans were grown in an area covered with an insect proof net under natural temperature and light regime in Brazil. Seeds were sown in a tray, allowed to germinate and grow for 14-23 days, and afterwards transplanted to containers. Subsequently, the plants were grown for another 27-35 days before spray application.
The soybean plants were sprayed twice at a spray interval of 14 days. The spray solutions were prepared by mixing experimental formulations (100 g/l SC), in water, adding the adjuvant Mees™ (BASF, soybean oil methyl ester 824.3 g/L, EC) at 0.5 I/ha. The plants were sprayed in a mobile spray cabinet with a horizontal boom. The spray solutions were applied with 500 L/ha spray volume with a flat fan nozzle.
The plants were inoculated with natural population of Phakopsora pachyrhizi spore suspension one day after each spray application. Plants were incubated in a mobile chamber with a misting system at saturated humidity following each inoculation.
Soybean rust infestation was assessed as percent infected leaf area at 14 days after second application (B14). These percent values were converted in efficacies. The efficacy (E) was calculated as follows using Abbot's formula: […]

[6] = system: Puccinia triticina; experiment: Use Example 7: preventative control of brown rust on wheat (PUCCRT P10); assay type: in vivo, Puccinia triticina (syn. P. recondita); settings: 16 ppm, ten days before inoculation, 6 days, untreated 80
Description: as §1
Use Example 7. Preventative Control of Brown Rust on Wheat Caused by Puccinia triticina (Syn. P. recondita) (PUCCRT P10)
The first two developed leaves of potted wheat seedling were sprayed to run-off with previously described spray solution, containing the concentration of active ingredient or their mixture as described below. Ten days later the plants were inoculated with spores of Puccinia triticina. To ensure the success of the artificial inoculation, the plants were transferred to a humid chamber without light and a relative humidity of 95 to 99% and 20 to 24° C. for 24 h. Then the trial plants were cultivated for 6 days in a greenhouse chamber at 20-24° C. and a relative humidity between 65 and 70%. The extent of fungal attack on the leaves was visually assessed as % diseased leaf area.

[7] = system: Puccinia striiformis; experiment: Use Example 9: curative control of wheat stripe rust on wheat (PUCCST K4); assay type: in vivo; settings: 16 ppm, untreated 90%
Description: as §1
Use Example 9. Curative Control of Wheat Stripe Rust on Wheat Caused by Puccinia striiformis (PUCCST K4)
The first two developed leaves of potted wheat seedling were inoculated with spores of Puccinia striiformis. To ensure the success of the artificial inoculation, the plants were transferred to a chamber without light and a temperature of 5° C. for 24 h. Then the trial plants were cultivated for 3 days in a greenhouse chamber at 16° C. and a relative humidity of minimum 75%. The plants were sprayed to run-off with the previously described spray solution, containing the concentration of active ingredient or their mixture as described below. The plants were allowed to air-dry. Then the trial plants were cultivated for up to 12 days in a greenhouse chamber at 16° C. and a relative humidity of minimum 75%. The extent of fungal attack on the leaves was visually assessed as % diseased leaf area.

[8] = Table 5, untreated infection 71%
[9] = Table 3, untreated infection 56

For `COC/C(=N\OCc1c(C)cccc1/C(=N\OC)C(=O)OC)c1c(F)cc(F)cc1F` [Compound 2, methyl (2E)-2-methoxyimino-2-[2-[[(Z)-[2-methoxy-1-(2,4,6-trifluorophenyl)ethylidene]amino]oxymethyl]-3-methyl-phenyl]acetate], the “Diseased leaf area (%)” value [1] was 11%, the “Diseased leaf area (%)” value [2] was 2% and the “Diseased leaf area (%)” value [3] was 13%. For the same molecule, the “Diseased leaf area (%)” value [4] was 13%, the “B14 Efficacy, %” value ([5]; Table 4, untreated infection 52) was 54% and the “B14 infection rate, %” value ([5]; Table 4, untreated 52) was 24%.

`CNC(=O)/C(=N/OC)c1cccc(C)c1CO/N=C(\COC)c1c(F)cc(OC)cc1F` [Compound 7, (2E)-2-[2-[[(Z)-[1-(2,6-difluoro-4-methoxy-phenyl)-2-methoxy-ethylidene]amino]oxymethyl]-3-methyl-phenyl]-2-methoxyimino-N-methyl-acetamide] was tested, and the “Diseased leaf area (%)” value [6] was 4%, the “Diseased leaf area (%)” value [1] was 0% and the “Diseased leaf area (%)” value [2] was 4%. For the same molecule, the “Diseased leaf area (%)” value [4] was 6%, the “Diseased leaf area (%)” value [7] was 0% and the “Efficacy, %” value ([5]; Table 7, untreated infection 63%) was 40%. The “infection rate, %” value ([5]; Table 7, untreated 63%) was 38%.

For `CO/C=C(/C(=O)OC)c1cccc(C)c1CO/N=C(\COC)c1c(F)cc(F)cc1F` [Compound 4, methyl (E)-3-methoxy-2-[2-[[(Z)-[2-methoxy-1-(2,4,6-trifluorophenyl)ethylidene]amino]oxymethyl]-3-methyl-phenyl]prop-2-enoate], the “Diseased leaf area (%)” value [6] was 12%, the “Diseased leaf area (%)” value [1] was 0% and the “Diseased leaf area (%)” value [2] was 5%. The “Diseased leaf area (%)” value [3] was 5%, the “Diseased leaf area (%)” value [4] was 4% and the “Diseased leaf area (%)” value [7] was 15%. The “Efficacy, %” value ([5]; Table 6, untreated infection 62%) was 66% and the “infection rate, %” value ([5]; Table 6, untreated 62%) was 21%.

For `CO/C=C(/C(=O)OC)c1cccc(C)c1CO/N=C(\COC)c1ccc(F)cc1Cl` [Compound 3], the “Diseased leaf area (%)” value [1] was 0%, the “Diseased leaf area (%)” value [3] was 5% and the “Diseased leaf area (%)” value [7] was 7%. The “Efficacy, %” value [5, 8] was 56% and the “infection rate, %” value ([5]; Table 5, untreated 71%) was 31%.

With `CNC(=O)/C(=N/OC)c1cccc(C)c1CO/N=C(\COC)c1ccc(F)c(F)c1` [Compound 5, (2E)-2-[2-[[(Z)-[1-(3,4-difluorophenyl)-2-methoxy-ethylidene]amino]oxymethyl]-3-methylphenyl]-2-methoxyimino-N-methyl-acetamide] the “Diseased leaf area (%)” value [6] was 12%, the “Diseased leaf area (%)” value [1] was 7% and the “Diseased leaf area (%)” value [2] was 6%. For the same molecule, the “Diseased leaf area (%)” value [3] was 3%, the “Diseased leaf area (%)” value [4] was 4% and the “Diseased leaf area (%)” value [7] was 1%. For the same molecule, the “B14 Efficacy, %” value [5, 9] was 57% and the “B14 infection rate, %” value ([5]; Table 3, untreated 56) was 24%.

For `CO/C=C(/C(=O)OC)c1cccc(C)c1CO/N=C(\COC)c1ccc(Cl)cc1Cl` [Compound 6, methyl (E)-2-[2-[[(Z)-[1-(2,4-dichlorophenyl)-2-methoxy-ethylidene]amino]oxymethyl]-3-methyl-phenyl]-3-methoxy-prop-2-enoate], the “Diseased leaf area (%)” value [6] was 5%, the “Diseased leaf area (%)” value [1] was 0% and the “Efficacy, %” value [5, 8] was 56%. For the same molecule, the “infection rate, %” value ([5]; Table 5, untreated 71%) was 31%.

For `CNC(=O)/C(=N/OC)c1cccc(C)c1CO/N=C(\COC)c1c(F)cc(F)cc1F` [Compound 1, (2E)-2-methoxyimino-2-[2-[[(Z)-[2-methoxy-1-(2,4,6-trifluorophenyl)ethylidene]amino]oxymethyl]-3-methyl-phenyl]-N-methyl-acetamide], the “Diseased leaf area (%)” value [1] was 13%, the “Diseased leaf area (%)” value [2] was 0% and the “Diseased leaf area (%)” value [3] was 11%. The “Diseased leaf area (%)” value [4] was 10%, the “Diseased leaf area (%)” value [7] was 0% and the “B14 Efficacy, %” value [5, 9] was 57%. For the same molecule, the “B14 infection rate, %” value ([5]; Table 3, untreated 56) was 24%.
